# From patent US8202731B2, “HPTS-mono and bis Cys-MA polymerizable fluorescent dyes for use in analyte sensors” (Glumetrics, Inc., priority 2007, dated 2012)
# Legend:
# Type in all cases: physicochemical
# [1] = Fluorescence of the dye in pH 7.4 PBS measured on the fluorimeter; settings: pH 7.4 PBS (FIG. 9)
# Procedure: Bis-MA was dissolved in pH 7.4 PBS and its fluorescence was measured on the fluorimeter. FIG. 9 compares Bis-MA with the Mono- and Tri-substituted HPTS derivatives.
# [2] = Comparison of dyes: emission/absorbance ratio (apparent quantum yield) in pH 7.4 PBS; settings: 1 × 10^−5 M in pH 7.4 PBS
# [3] = Determination of dye pKa via pH study, dye immobilized in 40% DMAA hydrogel
# Procedure: A hydrogel was prepared containing mono-CysMA, as described previously in U.S. patent application Ser. No. 11/671,880, to evaluate the fluorescence properties (excitation (ex), emission (em) and pKa) of mono-CysMA.
# A pH study was carried out with the gel.
# The three polymerizable dyes were immobilized using 40% DMAA and their pKa determined via a pH study.
Compound,Shift of fluorescence spectrum relative to mono- and tri-substituted HPTS derivatives [1],Absorbance [2],Intensity at max ([2]; emission),"Ratio (“Quantum Yield”) ([2]; Em/Abs ratio, apparent quantum yield, arbitrary numbers)","pKa ([3]; dye immobilized in 40% DMAA hydrogel, polymerizable dyes immobilized using 40% DMAA, pH study)","pKa ([3]; pH study with hydrogel containing mono-CysMA (FIG. 2), HPTS given for comparison)"
C=C(C)C(=O)NCCCNS(=O)(=O)c1cc(S(=O)(=O)NCCCNC(=O)C(=C)C)c2ccc3c(S(=O)(=O)[O-])cc(O)c4ccc1c2c43.[Na+] [Bis-MA],red-shifted relative to the Mono product but blue-shifted relative to the Tri product,–,–,–,–,–
"O=S(=O)(O)c1cc(O)c2ccc3c(S(=O)(=O)O)cc(S(=O)(=O)O)c4ccc1c2c34 [HPTS, 8-hydroxypyrene-1,3,6-trisulfonic acid]",–,0.1565,553,3533,7.3,7.3
